According to patent EP3225590A1 (Université de Strasbourg, priority 2016, dated 2017):
Values joined by “and” are separate entries in the source; they are usually repeats but may differ in a detail not shown here. Identical values can stand only once. Like-named read-outs stand apart in the source and are kept apart here.

Columns and labels:
ANR-Y1 = assay: Fluorescence titration of ANR-Y1 suspension with analyte, 1:1 single-site binding fit
ANR-L1 = assay: Fluorescence titration of ANR-L1 suspension with analyte, 1:1 single-site binding fit; conditions: for factor weaker binding in the presence of 50 mM Trp than in the absence: ANR-L1, 50 mM Trp as potential competitor
CB8-D1 = CB8-D1 (cucurbit[8]uril and dye D1), in water, read-out: Kd (affinity), cited from earlier work
ANR-Y2 = assay: Fluorescence titration of ANR-Y2 suspension with analyte, 1:1 single-site binding fit
Source text: (§1) This fitting procedure was used in favour of a Stern-Volmer analysis, because linearized binding plots are known to produce errors in Kd.
(§2) Herein, FA is the intensity at a given analyte concentration and F0 is the emission intensity before analyte addition. ΔF is a measure of the relative emission increase or decrease caused by the analyte. For fully non emissive AB complexes, i.e. when the analyte A is an efficient quencher, ΔF reaches -1. The quantity cA denotes the concentration of the analyte A and cB denotes the concentration of the "binding stations" in the ANR.
(§3) The values Kd and ΔF result from the non-least square fit given the input FA, F0, cA and cB.
(§4) The concentration cA of the analyte follows directly from the concentration of the stock solution and the added volume to the cuvette with the suspension of the ANR. The concentration cB of the single binding sites per ANR suspension is a priori not known. […] This so obtained value cB was then used as a constant for the fitting of the binding isotherms of the weaker binding analytes. […] In addition, it is reassuring to note that the value of the affinity constant Kd is rather insensitive to the concentration cB.

ANR-L4 = assay: Fluorescence titration of ANR-L4 suspension with analyte, 1:1 single-site binding fit
Source text: as §1, §2, §3, §4

ANR-L3 = assay: Fluorescence titration of ANR-L3 suspension with analyte, 1:1 single-site binding fit
Source text: as §1, §2, §3, §4

ANR-L2 = assay: Fluorescence titration of ANR-L2 suspension with analyte, 1:1 single-site binding fit
Source text: as §1, §2, §3, §4

ANRs = conditions: 100 µM concentration; ANR-Y2, ANR-L3 and ANR-L5
[1] = cucurbit[7]uril, ref. [9]; read-out: Kd(5-HT); cited from earlier work
ANR1 = assay: Binding of tryptophan to ANR1 at acidic pH (data not shown); conditions: pH <3
[2] = 10 mM HEPES buffer (pH 7.3), ANR 250 µg/mL, >> = less than 10% change in emission intensity at >50 molar excess of analyte, error less than ±20%, read-out: Kd(ANR-Y1)
[3] = 10 mM HEPES buffer (pH 7.3), ANR 250 µg/mL, >> = less than 10% change in emission intensity at >50 molar excess of analyte, error less than ±20%, read-out: Kd(ANR-L1)
[4] = ANR-Y1 250 µg/mL, 10 mM HEPES buffer (pH 7.3), read-out: single site dissociation constant Kd
[5] = read-out: single site dissociation constant Kd, ANR-Y2 250 µg/mL, 10 mM HEPES buffer (pH 7.3)
[6] = ANR-L1 250 µg/mL, 10 mM HEPES buffer (pH 7.3) with 50 mM tryptophan added, read-out: Kd
[7] = stated for the larger-cavity zeolite-Y-based receptors, printed 'with ANR-L2'
[8] = ANR-L3 250 µg/mL in 10 mM HEPES buffer, pH 7.3 (aqueous buffer)

| Structure (SMILES) | Kd (ANR-Y1; [2]) [µM] | Kd (ANR-L1; [3]) [µM] | also measured |
| --- | --- | --- | --- |
| N[C@@H](Cc1c[nH]c2ccc(O)cc12)C(=O)O [5-HTP] | > 1000 | > 1000 |  |
| N[C@H](CO)C(=O)O [D-serine] | > 1000 | > 1000 |  |
| N[C@@H](Cc1ccc(O)c(O)c1)C(=O)O [L-DOPA] | > 1000 | > 1000 |  |
| NC(=O)[C@@H](N)Cc1c[nH]c2ccccc12 [TrpNH2] | 0.11 | 32 | Kd (ANR-Y1; [4]): ~0.11 µM; Kd (CB8-D1; listed as TrpNF2): 2.2 µM; Kd (CB8-D1): ~2.2 µM; Kd (ANR-Y2; [5]): 2.7 µM |
| CC(=O)OCC[N+](C)(C)C [acetylcholin] | > 1000 | > 1000 |  |
| Nc1ncnc2c1ncn2[C@@H]1O[C@H](CO)[C@@H](O)[C@H]1O [adenosine] | > 1000 | > 1000 |  |
| NCCCCCN [cadaverine] | > 1000 | > 1000 |  |
| Oc1ccccc1O [catechol] | > 1000 | > 1000 |  |
| NCCc1ccc(O)c(O)c1 [dopamine] | 3.4 | 16 | Kd (ANR-Y1; read-out: approximated dissociation constant (Kd = 1/slope), Stern-Volmer plot, ANR-Y1): 4 µM; Kd (ANR-L4; read-out: approximated dissociation constant (Kd = 1/slope), Stern-Volmer plot, ANR-L4): 7 µM; Kd (ANR-L3; read-out: approximated dissociation constant (Kd = 1/slope), Stern-Volmer plot, ANR-L3): 15 µM; Kd (ANR-Y2; read-out: approximated dissociation constant (Kd = 1/slope), Stern-Volmer plot, ANR-Y2): 10 µM; Kd (ANR-Y2; [5]): 9.5 µM; Kd (ANR-L1; [6]): 48 µM; factor weaker binding in the presence of 50 mM Trp than in the absence (ANR-L1): ~ 3 |
| CNC[C@H](O)c1ccc(O)c(O)c1 [epinephrine] |  |  | Kd (ANR-Y1; pH 7.3, read-out: Kd(ANR-Y1)): 26 µM; Kd (ANR-L1; pH 7.3, read-out: Kd(ANR-L1)): > 600 µM; Kd (ANR-L2; ANR-L2, zeolite-L based): 240 µM; Kd (ANR-L2; [7]): 39 µM |
| NCCO [ethanolamine] | > 1000 | > 1000 |  |
| N[C@@H](CCC(=O)O)C(=O)O [glutamate] | > 1000 | > 1000 |  |
| NCC(=O)O [glycine (Gly), glycine] | > 1000 | > 1000 |  |
| NCCc1c[nH]cn1 [histamine] |  |  | Kd (ANR-L3; [8]): 360 µM |
| N[C@@H](Cc1c[nH]cn1)C(=O)O [histidine] | > 1000 | > 1000 |  |
| O=C(O)Cc1c[nH]c2ccccc12 [indole-3-acetic acid] | > 1000 | > 1000 |  |

| Structure (SMILES) | Kd (ANR-Y1; [2]) [µM] | Kd (ANR-L1; [3]) [µM] | also measured |
| --- | --- | --- | --- |
| c1ccc2[nH]ccc2c1 [indole] | > 1000 | > 1000 |  |
| COc1ccc2[nH]cc(CCNC(C)=O)c2c1 [melatonin] | > 1000 | > 1000 |  |
| CN1CCCC1c1cccnc1 (stereo not drawn) [nicotine] |  |  | effect on emission intensity (ANRs): no appreciable effect |
| NC[C@H](O)c1ccc(O)c(O)c1 [norepinephrine] | 11 | 31 | Kd (ANR-L2; ANR-L2, zeolite-L based): 13 µM; Kd (ANR-L2; [7]): 26 µM |
| NCC(O)c1ccc(O)cc1 (stereo not drawn) [octopamine] | 11 | 40 |  |
| CC(=O)Nc1ccc(O)cc1 [paracetamol] | > 1000 | > 1000 |  |
| NCCc1ccccc1 [phenethylamine] |  |  | residual emission int. (ANR-L4; ANR-L4, at 25 µM of analyte): 75%; Kd (ANR-L4; ANR-L4, partial emission quenching): 19 µM; Kd (ANR-L3; [8]): 190 µM |
| N[C@@H](Cc1ccccc1)C(=O)O [phenylalanine] | > 1000 | > 1000 |  |
| CNC[C@H](O)c1cccc(O)c1 [phenylephrine] | 55 | > 600 |  |
| CCC(=O)Nc1ccc(Cl)c(Cl)c1 [propanil] | > 1000 | > 1000 |  |
| CC(=O)CCc1ccc(O)cc1 [raspberry ketone] | > 1000 | > 1000 |  |
| NCCc1c[nH]c2ccc(O)cc12 [serotonin (5-HT), serotonin] | 0.07 | 3.3 | Kd (ANR-Y1; [4]): 0.07 µM and ~0.07 µM; Kd (ANR-L1; [6]): 14 µM; Kd (ANR-L1; ANR-L1 250 µg/mL, ethanolic media (ethanol with 0.2 mM acetic acid), read-out: single site dissociation constant Kd): ~25 µM; Kd (ANR-L1; ANR-L1 250 µg/mL, water and aqueous buffer, read-out: single site dissociation constant Kd): ~3 µM; factor weaker binding in the presence of 50 mM Trp than in the absence (ANR-L1): ~ 4; Kd (ANR-L1; read-out: approximated dissociation constant (Kd = 1/slope), Stern-Volmer plot, ANR-L1): 4 µM; Kd (ANR-L2; read-out: approximated dissociation constant (Kd = 1/slope), Stern-Volmer plot, ANR-L2): 2 µM; Kd [1]: ~15 µM |
| NCCc1c[nH]c2ccccc12 [tryptamine] | 0.15 | 10 | Kd (ANR-L3; [8]): ~9 µM; Kd (ANR-L3; ANR-L3, neat chloroform (absence of acetic acid)): 15 µM; Kd (ANR-L3; read-out: single site dissociation constant Kd, ANR-L3 250 µg/mL, chloroform:acetic acid (99:1)): 4 µM; Kd (ANR-L1; [6]): 27 µM; factor weaker binding in the presence of 50 mM Trp than in the absence (ANR-L1): ~ 3; Kd (ANR-L1; read-out: single site dissociation constant Kd): 3 µM |
| N[C@@H](Cc1c[nH]c2ccccc12)C(=O)O [tryptophan (Trp), tryptophan] | > 1000 | > 1000 | Kd (CB8-D1): ~6.3 µM; binding to ANR1 (ANR1): binding; binding to ANR1 (ANR1; listed as trytophane): bind |
| NCCc1ccc(O)cc1 [tyramine] | 5.7 | 27 | quenching of the emission of ANR-L3 (ANR-L3; titration curve shows saturation behaviour): 30% |
| N[C@@H](Cc1ccc(O)cc1)C(=O)O [tyrosine] | > 1000 | > 1000 |  |
